Results as given in US10414754B2, “Indolizine compounds, a process for their preparation and pharmaceutical compositions containing them” (LES LABORATOIRES SERVIER, priority 2013, dated 2019).
Structures can show the parent of a compound that is named as a salt.

Key:
[1] = target: T1, Bcl-2 protein (histag-Bcl-2, UniProtKB P10415) (Homo sapiens, UniProt P10415); experiment: Inhibition of Bcl-2 by the fluorescence polarisation technique; format: binding; settings: for IC50: fluorescence polarisation, 2 hours incubation, read-out: IC50 (nM) Bcl-2 FP
T1 construct: His tag
T1 sequence (P10415 whole entry): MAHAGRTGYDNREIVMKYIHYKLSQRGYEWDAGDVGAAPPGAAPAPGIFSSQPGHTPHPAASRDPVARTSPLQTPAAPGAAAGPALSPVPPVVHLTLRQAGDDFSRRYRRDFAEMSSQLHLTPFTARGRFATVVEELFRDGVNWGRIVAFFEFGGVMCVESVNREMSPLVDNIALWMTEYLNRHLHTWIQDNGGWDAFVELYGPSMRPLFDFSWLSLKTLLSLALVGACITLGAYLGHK
Summary of the method: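 Fluorescence polarisation competition: His-tagged human Bcl-2 (2.50×10^−8 M final) was mixed with fluorescein-labelled peptide (1.00×10^−8 M final) and increasing compound concentrations. Buffer was 10 mM Hepes, 150 mM NaCl, 0.05% Tween20, pH 7.4. Polarisation was read after 2 h.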

[2] = tested on: RS4;11 leukaemia tumour line; experiment: In vitro cytotoxicity (MTT) on RS4;11; format: cell-based; settings: RS4;11 cells, 48 hours exposure
Protocol: The cytotoxicity studies were carried out on the RS4;11 leukaemia tumour line.
The cells are distributed onto microplates and exposed to the test compounds for 48 hours.
The cell viability is then quantified by a colorimetric assay, the Microculture Tetrazolium Assay (Cancer Res., 1987, 47, 939-942).

IC50 [1]	percentage fluorescence polarisation inhibition (partial inhibitors), Bcl-2 FP ([1]; @ 10 μM test compound)	Compound	IC50 ([2]; Homo sapiens)	IC50 [2]
56.4 nM	–	O=C(c1ccc(Cl)cc1-c1cc(C(=O)N(c2ccc(O)cc2)c2ccc3c(ccn3CCN3CCOCC3)c2)c2n1CCCC2)N1CCc2ccccc2C1 [Example 4, 3-[5-Chloro-2-(3,4-dihydroisoquinolin-2(1H)-ylcarbonyl)phenyl]-N-(4-hydroxyphenyl)-N-{1-[2-(morpholin-4-yl)ethyl]-1H-indol-5-yl}-5,6,7,8-tetrahydro-indolizine-1-carboxamide]	251 nM	–
55.9 nM	–	O=C(c1ccc(Cl)cc1-c1cc(C(=O)N(c2ccc(O)cc2)c2ccc3c(c2)CCN3CCN2CCOCC2)c2n1CCCC2)N1CCc2ccccc2C1 [Example 5, 3-[5-Chloro-2-(3,4-dihydroisoquinolin-2(1H)-ylcarbonyl)phenyl]-N-(4-hydroxyphenyl)-N-{1-[2-(morpholin-4-yl)ethyl]-2,3-dihydro-1H-indol-5-yl}-5,6,7,8-tetrahydroindolizine-1-carboxamide]	416 nM	–
7.5 nM	–	O=C(c1cc(-c2cc3c(cc2C(=O)N2Cc4ccccc4C[C@H]2CO)OCO3)n2c1CCCC2)N(c1ccccc1)c1ccc(O)cc1 [Example 16, 3-(6-{[(3S)-3-(Hydroxymethyl)-3,4-dihydroisoquinolin-2(1H)-yl]-carbonyl}-1,3-benzodioxol-5-yl)-N-(4-hydroxyphenyl)-N-phenyl-5,6,7,8-tetrahydro-indolizine-1-carboxamide]	252 nM	–
77.6 nM	–	CCCCN(C(=O)c1cc(-c2cc3c(cc2C(=O)N2CCc4ccccc4C2)OCO3)n2c1CCCC2)c1ccc(O)cc1 [Example 76, N-Butyl-3-[6-(3,4-dihydroisoquinolin-2(1H)-ylcarbonyl)-1,3-benzo-dioxol-5-yl]-N-(4-hydroxyphenyl)-5,6,7,8-tetrahydroindolizine-1-carboxamide]	1630 nM	–
6.6 nM	–	Cc1ccc(N(C(=O)c2cc(-c3cc4c(cc3C(=O)N3Cc5ccccc5C[C@H]3C)OCO4)n3ccccc23)c2ccc(O)cc2)cn1 [Example 54, N-(4-Hydroxyphenyl)-3-(6-{[(3R)-3-methyl-3,4-dihydroisoquinolin-2(1H)-yl]carbonyl}-1,3-benzodioxol-5-yl)-N-(6-methylpyridin-3-yl)indolizine-1-carboxamide hydrochloride]	45 nM	–
35.8 nM	–	CN(C(=O)c1cc(-c2cc3c(cc2C(=O)N2CCc4ccccc4C2)OCO3)n2ccccc12)c1ccc(O)cc1 [Example 83, 3-[6-(3,4-Dihydroisoquinolin-2(1H)-ylcarbonyl)-1,3-benzodioxol-5-yl]-N-(4-hydroxyphenyl)-N-methylindolizine-1-carboxamide]	1500 nM	–
299 nM	–	CC(C)N(C(=O)c1cc(-c2cc3c(cc2C(=O)N2Cc4ccccc4C[C@H]2C)OCO3)n2c1CNCC2)c1ccc(O)cc1 [Example 80, N-(4-Hydroxyphenyl)-6-(6-{[(3R)-3-methyl-3,4-dihydroisoquinolin-2(1H)-yl]carbonyl}-1,3-benzodioxol-5-yl)-N-(propan-2-yl)-1,2,3,4-tetrahydro-pyrrolo[1,2-a]pyrazine-8-carboxamide]	1880 nM	–
4.8 nM	–	C[C@@H]1Cc2ccccc2CN1C(=O)c1cc2c(cc1-c1cc(C(=O)N(c3ccc(O)cc3)c3ccn4ccnc4c3)c3ccccn13)OCO2 [Example 51, N-(4-Hydroxyphenyl)-N-(imidazo[1,2-a]pyridin-7-yl)-3-(6-{[(3R)-3-methyl-3,4-dihydroisoquinolin-2(1H)-yl]carbonyl}-1,3-benzodioxol-5-yl)indolizine-1-carboxamide hydrochloride]	68.8 nM	–
24.7 nM	–	Cc1ccc(N(C(=O)c2cc(-c3cc(F)ccc3C(=O)N3Cc4ccccc4C[C@H]3C)n3c2CNCC3)c2ccc(O)cc2)cc1F [Example 10, 6-(5-Fluoro-2-{[(3R)-3-methyl-3,4-dihydroisoquinolin-2(1H)-yl]-carbonyl}phenyl)-N-(3-fluoro-4-methylphenyl)-N-(4-hydroxyphenyl)-1,2,3,4-tetrahydropyrrolo[1,2-a]pyrazine-8-carboxamide hydrochloride]	439 nM	–
2.9 nM	–	NCC[C@@H]1Cc2ccccc2CN1C(=O)c1cc2c(cc1-c1cc(C(=O)N(c3ccccc3)c3ccc(O)cc3)c3n1CCCC3)OCO2 [Example 37, 3-(6-{[(3S)-3-(2-Aminoethyl)-3,4-dihydroisoquinolin-2(1H)-yl]carbonyl}-1,3-benzodioxol-5-yl)-N-(4-hydroxyphenyl)-N-phenyl-5,6,7,8-tetrahydroindolizine-1-carboxamide hydrochloride]	24.7 nM	–
11.1 nM	–	O=C(c1cc(-c2ccccc2C(=O)N2Cc3ccccc3C[C@H]2CCN2CCOCC2)n2c1CCCC2)N(c1ccccc1)c1ccc(O)cc1 [Example 20, N-(4-Hydroxyphenyl)-3-(2-{[(3S)-3-[2-(morpholin-4-yl)ethyl]-3,4-dihydroisoquinolin-2(1H)-yl]carbonyl}phenyl)-N-phenyl-5,6,7,8-tetrahydroindolizine-1-carboxamide hydrochloride]	205 nM	–
–	42% @ 10 μM	C[C@H]1Cc2ccccc2CN1C(=O)c1cc2c(cc1-c1cc(C(=O)N(C)c3ccc(O)cc3)c3n1CCCC3)OCO2 [Example 82, N-(4-Hydroxyphenyl)-N-methyl-3-(6-{[(3S)-3-methyl-3,4-dihydroiso-quinolin-2(1H)-yl]carbonyl}-1,3-benzodioxol-5-yl)-5,6,7,8-tetrahydroindolizine-1-carboxamide]	–	1880 nM
90.2 nM	–	C[C@@H]1Cc2ccccc2CN1C(=O)c1cc2c(cc1-c1cc(C(=O)N(C)c3ccc(O)cc3)c3n1CCNC3)OCO2 [Example 72, N-(4-Hydroxyphenyl)-N-methyl-6-(6-{[(3R)-3-methyl-3,4-dihydroiso-quinolin-2(1H)-yl]carbonyl}-1,3-benzodioxol-5-yl)-1,2,3,4-tetrahydropyrrolo[1,2-a]-pyrazine-8-carboxamide]	1520 nM	–
5 nM	–	Cc1cc(N(C(=O)c2cc(-c3cc4c(cc3C(=O)N3Cc5ccccc5C[C@H]3C)OCO4)n3ccccc23)c2ccc(O)cc2)ccn1 [Example 32, N-(4-Hydroxyphenyl)-3-(6-{[(3R)-3-methyl-3,4-dihydroisoquinolin-2(1H)-yl]carbonyl}-1,3-benzodioxol-5-yl)-N-(2-methylpyridin-4-yl)indolizine-1-carboxamide hydrochloride]	32.7 nM	–
5.4 nM	–	Cc1cn2ccc(N(C(=O)c3cc(-c4cc5c(cc4C(=O)N4Cc6ccccc6C[C@H]4C)OCO5)n4ccccc34)c3ccc(O)cc3)cc2n1 [Example 53, N-(4-Hydroxyphenyl)-3-(6-{[(3R)-3-methyl-3,4-dihydroisoquinolin-2(1H)-yl]carbonyl}-1,3-benzodioxol-5-yl)-N-(2-methylimidazo[1,2-a]pyridin-7-yl)indolizine-1-carboxamide hydrochloride]	70.9 nM	–
15.1 nM	–	C[C@@H]1Cc2ccccc2CN1C(=O)c1cc2c(cc1-c1cc(C(=O)N(c3ccc(O)cc3)c3ccc(CCN4CCCC(F)(F)C4)cc3)c3ccccn13)OCO2 [Example 35, N-{4-[2-(3,3-Difluoropiperidin-1-yl)ethyl]phenyl}-N-(4-hydroxyphenyl)-3-(6-{[(3R)-3-methyl-3,4-dihydroisoquinolin-2(1H)-yl]carbonyl}-1,3-benzodioxol-5-yl)indolizine-1-carboxamide hydrochloride]	62.2 nM	–
3.4 nM	–	C[C@@H]1Cc2ccccc2CN1C(=O)c1cc2c(cc1-c1cc(C(=O)N(c3ccc(O)cc3)c3ccc(OCCN4CCOCC4)c(F)c3)c3ccccn13)OCO2 [Example 17, N-{3-Fluoro-4-[2-(morpholin-4-yl)ethoxy]phenyl}-N-(4-hydroxyphenyl)-3-(6-{[(3R)-3-methyl-3,4-dihydroisoquinolin-2(1H)-yl]carbonyl}-1,3-benzodioxol-5-yl)indolizine-1-carboxamide hydrochloride]	11.8 nM	–
21.2 nM	–	O=C(c1cc2c(cc1-c1cc(C(=O)N(c3ccccc3)c3ccc(O)cc3)c3n1CCCC3)OCO2)N1CCc2ccccc2C1 [Example 57, 3-[6-(3,4-Dihydroisoquinolin-2(1H)-ylcarbonyl)-1,3-benzodioxol-5-yl]-N-(4-hydroxyphenyl)-N-phenyl-5,6,7,8-tetrahydroindolizine-1-carboxamide]	282 nM	–
68.7 nM	–	CN(C(=O)c1cc(-c2cc3c(cc2C(=O)N2CCc4ccccc4C2)OCO3)n2c1CCCC2)c1ccc(O)cc1 [Example 74, 3-[6-(3,4-Dihydroisoquinolin-2(1H)-ylcarbonyl)-1,3-benzodioxol-5-yl]-N-(4-hydroxyphenyl)-N-methyl-5,6,7,8-tetrahydroindolizine-1-carboxamide]	1340 nM	–
5.7 nM	–	C[C@@H]1Cc2ccccc2CN1C(=O)c1cc2c(cc1-c1cc(C(=O)N(c3ccccc3)c3ccc(O)cc3)c3n1CCC(N)C3)OCO2 (stereo partly drawn) [Example 15, 7-Amino-N-(4-hydroxyphenyl)-3-(6-{[(3R)-3-methyl-3,4-dihydroiso-quinolin-2(1H)-yl]carbonyl}-1,3-benzodioxol-5-yl)-N-phenyl-5,6,7,8-tetrahydro-indolizine-1-carboxamide hydrochloride]	166 nM	–
5.4 nM	–	C[C@@H]1Cc2ccccc2CN1C(=O)c1ccc(F)cc1-c1cc(C(=O)N(c2ccc(O)cc2)c2cnn(C)c2)c2ccccn12 [Example 60, 3-(5-Fluoro-2-{[(3R)-3-methyl-3,4-dihydroisoquinolin-2(1H)-yl]-carbonyl}phenyl)-N-(4-hydroxyphenyl)-N-(1-methyl-1H-pyrazol-4-yl)indolizine-1-carboxamide]	60.3 nM	–
